{"source": "patent US20080131420A1", "about": "“METHODS AND COMPOSITIONS FOR TREATING MUCOSAL INFLAMMATION” (Accentia, Inc., priority 2006, published 2008)", "format_in_all_cases": "cell-based", "key": {"Alternaria alternata [1]": {"system": "Alternaria alternata", "test": "Inhibition of Alternaria alternata in RPMI-1640 broth tubes, visual growth rating 0-4 (Example 2)", "settings": "spiked, 48 hours at 30-35°", "experimental": "Amphotericin-B and Parabens (methylparaben and propylparaben) were tested for their ability to inhibit the fungus Alternaria alternata. Samples were stored at 2-8° C. prior to use.\nPrepared an inoculating culture of Alternaria alternata by placing an ATCC pellet in 5 mL phosphate buffer, after dissolution spread the broth and dissolved pellet over the surface of a PDA plate using a FIG. 8 motion. The inoculum plate was incubated for five days at 20-25° C.\nAfter the five day incubation period, 3 ml of modified phosphate buffer was used to wet the surface growth of the PDA plate. The surface of the culture was washed with the buffer using a sterile spreader stick. After washing, a 10 mL pipette was used to remove as much of the wash as is possible without picking up any agar. The wash was pipetted into a sterile culture tube.\nSerial dilutions of the wash modified phosphate buffer were performed using modified phosphate buffer to determine the dilution that yields a mold population of 10^6 per mL. The dilutions were done by pipetting 1 mL of each dilution of the wash into molten potato dextrose agar plates pH 3.5 in quadruplicate, incubating at 20-25° C. for five days, assuring that there are not mixed cultures, and then counting the colonies on the plates. The correct dilution yielded counts of 30-300 CFU's. To maintain the correct dilution for inoculation, all dilutions were refrigerated at 2-8° C. until needed. […] A 0.1 mL aliquot of this dilution was used to inoculate the inhibition culture tubes.\nTwelve sterile test tubes were prepared with 9 mL Modified Synthetic Medium RPMI-1640 broth that has been tempered in a 45-50° C. water bath and labeled as follows: Amphotericin B neg. control, Ampho-B 100 spike, Ampho-B 2 spike, Ampho-B 1 spike, Ampho-B 0.5 spike, Paraben neg. control, Paraben 400/100 spike, Paraben 300/75 spike, Paraben 200/50 spike, Paraben 100/25 spike, Pos. control, Neg control.\nAn Amphotericin-B suspension was prepared by placing in suspension 10 mg of Amphotericin-B in 10 mL in modified phosphate buffer. The sample was mixed by vortex for 30 seconds. […]\nControl samples, Amphotericin B and Parabens dilutions were all prepared from the stock solutions. To all tube labeled “spike” and positive control, 0.1 mL of the inoculated buffer was added and determined to yield […]. […] The growth in each tube was recorded visually, on a 0-4 scale: 0: no growth observed, 1: slight growth or ˜25% of the growth control, 2: prominent growth or ˜50% of the growth control, 3: slight reduction in growth or ˜75% of the growth control, and 4: no reduction in growth or 100% of the growth control. […]"}, "Alternaria alternata [2]": {"system": "Alternaria alternata", "test": "Antifungal Efficacy, sample diluted and plated, plates read for mold growth (Example 1)", "settings": "100% sample; diluted and plated at 1, 4, 24 and 48 hours of incubation; plate read on days 2, 3 and 5", "experimental": "SINOFRESH Essential Nasal Cleansing Formula, which included cetylpyridinium chloride (CPC) at 0.02% and benzalkonium chloride (BKC) at 0.005%, was tested for its ability to inhibit Alternaria alternata, a fungus typically associated with non-invasive fungus-induced rhinosinusitis. Minimum Inhibitory Concentration (MIC), Antifungal Efficacy, and Selective Agar Streak were all determined, and met the pre-defined acceptance criteria that the negative control test tube had to remain free of growth throughout the study, while the positive control tube had to retain growth throughout the study. No deviations were noted during the study.\nA 100% sample of 0.02% cetylpyridinium chloride was tested for antifungal efficacy. At 1, 4, 24, and 48 hours of incubation, the sample was diluted and plated. On days 2, 3, and 5, the plate was read."}, "Alternaria alternata [3]": {"system": "Alternaria alternata", "test": "Cylinder Agar Plate Assay (Example 3)", "source_text": "Cetyl pyridinium chloride (CPC) and benzalkonium chloride (BKC) were both independently tested to determine their efficacy of inhibiting Alternaria alternata, a fungus typically associated with non-invasive fungus-induced rhinosinusitis. An in vitro test of the efficacy of BKC and CPC in combination was also completed against Alternaria alternata.\nFive concentrations of BKC and CPC were independently tested against Alternaria alternata in a cylinder Agar Plate Assay. The CPC concentrations were 0.005%, 0.01%, 0.05%, 0.25% and 1.0%, whereas the BKC concentrations were 0.00025%, 0.001%, 0.005%, 0.025%, and 0.1%. These concentrations were chosen to include the concentrations in the SINOFRESH product as well as two concentrations above and two concentrations below the SINOFRESH product.\nFive concentrations of a combination of BKC and CPC were independently tested against Alternaria alternata in a cylinder Agar Plate Assay. The concentrations were as follows:\nFive concentrations of the SINOFRESH product were also subjected to the same Agar Plate Assay, with the same concentrations of BKC and CPC."}}, "note": "“Also recorded” adds a separate entry of the source.", "data": [{"molecule": "C[C@@H]1[C@H](O)[C@@H](C)/C=C/C=C/C=C/C=C/C=C/C=C/C=C/[C@H](O[C@@H]2O[C@H](C)[C@@H](O)[C@H](N)[C@@H]2O)C[C@@H]2O[C@](O)(C[C@@H](O)C[C@@H](O)[C@H](O)CC[C@@H](O)C[C@@H](O)CC(=O)O[C@H]1C)C[C@H](O)[C@H]2C(=O)O", "note": "[Amphotericin B]", "values": [{"measurement": "Rating (growth, 0-4 scale)", "setting": "Alternaria alternata [1]; 0.5 μg/mL", "value": "2 (prominent growth or ˜50% of the growth control)"}, {"measurement": "Rating (growth, 0-4 scale)", "setting": "Alternaria alternata [1]; 1.0 μg/mL", "value": "2 (prominent growth or ˜50% of the growth control)"}, {"measurement": "Rating (growth, 0-4 scale)", "setting": "Alternaria alternata [1]; 2.0 μg/mL", "value": "1 (slight growth or ˜25% of the growth control)"}, {"measurement": "Rating (growth, 0-4 scale)", "setting": "Alternaria alternata [1]; 100 μg/mL", "value": "1 (slight growth or ˜25% of the growth control)"}]}, {"molecule": "CCCCCCCCCCCCCCCC[n+]1ccccc1", "note": "[CPC, cetylpyridinium chloride]", "values": [{"measurement": "mold growth on plate", "setting": "Alternaria alternata [2]", "value": "did not exhibit any mold growth"}, {"measurement": "effect on the growth of Alternaria alternata", "setting": "Alternaria alternata [3]; CPC alone at 0.005%, 0.01%, 0.05%, 0.25% and 1.0%", "value": "most observable effect"}]}, {"molecule": "benzalkonium chloride [BKC]", "values": [{"measurement": "effect on the growth of Alternaria alternata", "setting": "Alternaria alternata [3]; BKC alone at 0.005% (concentration in the SINOFRESH product)", "value": "little to no effect; also recorded: essentially inactive"}, {"measurement": "effect on the growth of Alternaria alternata", "setting": "Alternaria alternata [3]; BKC alone at concentrations of about 0.025% or above", "value": "some effect"}]}]}
